“Also recorded” adds a separate entry of the source. Where no end group is shown, it is not given here.

Experiment [1] relates to INS-1E cells. Nature of the experiment: Insulin secretion by novel peptide analogues (Example 21, FIG. 16). Format: cell-based, rat. The conditions noted are these: 100 nM peptide, high glucose buffer, vs un-supplemented high glucose buffer. As to the method:
Materials and methods: Rat INS-1 β-cells (passages 60-70) were cultured at 37° C. and 5% CO2 in cRPMI media (RPMI 1640 supplemented with 10% fetal bovine serum, 50 IU/mL penicillin, 50 mg/L streptomycin, 10 mM HEPES, 2 mM L-glutamine, 1 mM sodium pyruvate, and 50 μM beta-mercaptoethanol) unless otherwise stated. INS-1 cells were seeded in 96-well plates (2×10^3 cells/well) in cRPMI medium and following overnight incubation, the cells were washed in PBS before pre-incubation for 120 min at 37° C. in Krebs-Ringer bicarbonate buffer, pH 7.4, supplemented with 10 mM HEPES, 0.1% bovine serum albumin and 2.8 mM glucose. Following pre-incubation, the buffer was exchanged with fresh Krebs-Ringer buffer as described above and supplemented with specific glucose concentrations and peptides for the individual experiments as described below. Immediately after 60 minutes incubation at 37° C., an aliquot of the buffer was removed and frozen for subsequent insulin ELIZA assay.
In order to correct for the variance between experiments, all values were normalized to, and expressed as percentage of the average value of the high glucose control in the individual experiments. The analogues were subsequently ranked according to performance (FIG. 16).

The test system of experiment [2] is isolated mouse islets. As to the kind of experiment: Insulin and glucagon secretion from isolated mouse islets (Example 12). In kind it is cell-based. To be noted: 100 nM. The procedure:
Twelve-week-old male C57/bl6 mice were euthanized with isoflurane and cervical dislocation. After clamping the hepatic ducts, 3 ml of 0.9 U/ml collagenase P was injected into the bile duct to inflate the pancreas. The pancreas was then removed and digested for 19 min at 37° C. The samples were vigorously shaken to disrupt the tissue. The digest was quickly transferred into ice cold Hank's Balanced Salts Solution with Ca^2+ and Mg^2+. The suspension was allowed to sit for 8 min to allow the islet to sink, and the islets were washed in the same manner four times. The islets were then handpicked and sorted according to size.
Freshly isolated islets were seeded in groups of 5 in a 96-well plate and preincubated for 1 h at 37° C. in a Krebs-Ringer bicarbonate buffer (pH 7.4). The islets were incubated for 1 h at 37° C. in Krebs-Ringer buffered solution supplemented with 0.6 or 6 μM FOL-014 or 100 nM GLP-1 or left unsupplemented for control. Immediately after incubation, the medium was removed for assays of insulin and glucagon using Mercodia's ELISA kits. The effect of FOL-014 on insulin (FIGS. 8A and B) and glucagon (FIGS. 8C and D) secretion from isolated mouse islets was measured in the presence of low glucose (2.8 mM; FIGS. 8A and C) or high glucose (16.7 mM; FIGS. 8B and D) concentrations.

Experiment [3] concerns mouse pancreatic islets. As to the kind of experiment: Insulin secretion from isolated mouse pancreatic islets (Examples 5 and 7). In kind it is cell-based. To be noted: 60 min. As to the method: Mouse pancreatic islets were isolated from 8-week old C57BL/6J male mice (Taconic). Mice were sacrificed by an overdose of isoflurane and cervical dislocation. 3 ml of 0.9 U/ml collagenase P was injected into the pancreatic duct to inflate the pancreas. The Pancreas was then removed and collagen digested for 19 min at 37° C. The samples Were vigorously shaken to disrupt the tissue. The digest was transferred into ice cold Hank's Balanced Salt Solution (HBSS) with Ca^2+ and Mg^2+. The suspension was allowed to sit for 10 min to allow the islet to sink, and the islets were washed in fresh HBSS four times. The islets were then hand-picked and sorted according to size. Islets (n=3 per well in a 96 well plate) were pre-incubated in KRB buffer during 10 min 37° C., pH 7.4, supplemented with 10 mM HEPES, 0.1% bovine serum albumin. After pre-incubation, the buffer was changed and islets were incubated at different test conditions in new KRB buffer with 0.1% bovine serum albumin (non-treated ctrl, FOL-005 peptide, or GLP-1) for 60 min at 37° C. Immediately after incubation, an aliquot of the buffer was removed and frozen for subsequent assay of insulin.
Mouse pancreatic islets were isolated from 8-week old C57BL/6J male mice as described under example 5. The islets were then hand-picked and sorted according to size. Islets (n=5 per well in a 96 well plate) were pre-incubated in 200 μl KRB buffer during 10 min 37° C., pH 7.4, supplemented with 10 mM HEPES, 0.1% bovine serum albumin. Following pre-incubation, the buffer was changed and islets were incubated in different test conditions in new KRB buffer with 0.1% bovine serum albumin (non-treated ctrl, FOL-014 peptide, and GLP-1) for 60 min at 37° C. Immediately after incubation, an aliquot of the buffer was removed and frozen for subsequent assay of insulin.

For experiment [4], the system named is INS-1 cells. As to the kind of experiment: Glucotoxicity-induced apoptosis of INS-1 cells (Annexin V staining, caspase-3 activity). In kind it is cell-based, rat. To be noted: 20 mM glucose, 48 h, vs 20 mM glucose alone. The procedure:
Since glucotoxicity in pancreatic β-cells is a well-established process in type 2 diabetes we next investigated the protective effects of FOL-005 on β-cells during glucotoxic conditions. First we confirmed that 20 mM glucose induced cell apoptosis in INS cells after 48 h of exposure. High glucose (20 mM) containing RPMI medium induced more Annexin V positive cells and more caspase-3 activity in INS cells compared to cells incubated with medium containing 5 mM glucose (FIG. 2A-B). […] The rate of apoptosis in INS-1 cells was measured with either Caspase-3 Assay Kit or stained with Annexin V Apoptosis Detection Kit with 7-AAD. Caspase-3 activity was measured with fluorescence at an excitation wavelength of 380 nm and an emission wavelength of 440 nm. Caspase-3 activity was then normalized to protein concentration in each well. Measurements of
Annexin V stained cells were performed using a CyAn ADP flow cytometer and analyzed with Summit V4.3 software.

Experiment [5] concerns INS-1 cells. As to the kind of experiment: Proliferation of INS-1 cells ([methyl-3H] thymidine incorporation). In kind it is cell-based, rat. The procedure:
To investigate if FOL-005 and FOL-014 could induce proliferation of β-cells we used INS-1 cells. Rat INS-1 cells were seeded in 96-well plates in RPMI medium with supplement and after 2 hours the medium was changed to RPMI without supplement. During the proliferation experiment the cells were incubated at different test conditions (FOL-005, FOL-014, coated or in solution, 48 h incubation) and during the last 20 hours of culture period the cells were pulsed with 1 μ Ci/well of [methyl-3H] thymidine. The cells were then harvested onto glass fiber filters using a FilterMate harvester. The filters were air dried, and the bound radioactivity was measured using a liquid scintillation counter. To study whether FOL-005 influenced β-cell proliferation, INS-1 cells were treated with increasing amounts of soluble FOL-005 (0.06-6 μM) during 48 hours and proliferation was measured with radiolabeled thymidine incorporation into newly synthesized DNA.

For experiment [6], the system named is INS-1 β-cells. Nature of the experiment: Insulin secretion from INS-1 cells (Examples 4 and 6). Format: cell-based, rat. To be noted: 6 μM peptide. The procedure: To investigate the stimulatory effect of FOL-005 on insulin secretion, INS-1 β-cells were used in the following experiments. Cells were seeded overnight in cRPMI and then washed with PBS before pre-incubation for 60 min at 37° C. in Krebs-Ringer bicarbonate buffer (KRB), pH 7.4, supplemented with 10 mM HEPES, 0.1% bovine serum albumin. After pre-incubation, the buffer was changed and the INS-1 cells were incubated at different test conditions (0 mM, 5 mM or 20 mM glucose) and stimulated with peptide FOL-005 or FOL-015 (SEQ ID NO: 158) or left untreated during 60 min at 37° C. Immediately after incubation, an aliquot of the buffer was removed and frozen for subsequent assay of insulin with an insulin radioimmunoassay kit.
INS-1 β-cells were used to investigate the stimulatory effect of FOL-014 on insulin secretion. Cells were seeded overnight and then washed with PBS before pre-incubation for 60 min at 37° C. in Krebs-Ringer bicarbonate buffer (KRB), pH 7.4, supplemented with 10 mM HEPES, 0.1% bovine serum albumin. After pre-incubation, the buffer was changed and the INS-1 cells were incubated in new KRB buffer supplemented with 10 mM HEPES, 0.1% bovine serum albumin and stimulated with peptide FOL-014 or left untreated during 60 min at 37° C. Immediately after incubation, an aliquot of the buffer was removed and frozen for subsequent assay of insulin.

Turning to “DSIELSYGIK (MISC_FEATURE - peptide) [FOL-059]”, the insulin secretion result in experiment [1] is “increased the insulin secretion as compared with cells treated with an un-supplemented high glucose buffer”.

Take “EIDSIELSYGIK (MISC_FEATURE - peptide) [FOL-057]”: the insulin secretion entry in experiment [1] is listed as “increased the insulin secretion as compared with cells treated with an un-supplemented high glucose buffer”.

As to “GLP-1: native glucagon-like peptide-1, metabolic hormone that stimulates insulin secretion; comparator (HAEGTFTSDVSSYLEGQAAKEFIAWLVKGR; ends and bridges not checked; UniProt P01275 98-127, looked up) [reference compound]”, the glucagon secretion entry in experiment [2] (high glucose (16.7 mM)) is listed as “efficiently reduced glucagon secretion”; in experiment [2] (low glucose (2.8 mM)), “failed to inhibit glucagon secretion in low glucose conditions”. In addition, the insulin secretion entry in experiment [2] (high glucose (16.7 mM)) is on record as “significantly increased insulin secretion”; in experiment [2] (low glucose (2.8 mM)) it was “enhanced insulin secretion also in low glucose samples”; in experiment [3] (Example 5, 100 nM, vs unstimulated control islets) it was “secreted more insulin compared to unstimulated control islets”; in experiment [3] (Example 7, 100 nM), “did not affect insulin secretion; also recorded: had no effect on insulin secretion”.

Turning to “IDSIELSYGIK (MISC_FEATURE - peptide) [FOL-058]”, the insulin secretion result in experiment [1] is “increased the insulin secretion as compared with cells treated with an un-supplemented high glucose buffer”.

“VDTYDGDISVVYGLR (MISC_FEATURE - peptide, FOL-005)”: the “apoptotic cells (Annexin V positive)” value in experiment [4] is “decreased cell apoptosis; also recorded: reduced the level of apoptotic cells compared to 20 mM glucose alone”. Further, the caspase-3 activity result in experiment [4] was “decreased cell apoptosis; also recorded: diminished the rate of glucotoxicity-induced caspse-3 activity”. In addition, the “proliferation of INS-1 cells” value in experiment [5] (peptide in solution, 0.06-6 μM, 48 hours) is given as “stimulated INS-1 cell proliferation; also recorded: induced increasing proliferation of INS-1 cells”; in experiment [5] (wells coated with peptide and blocked with BSA, vs BSA coated control wells) it was “stimulated proliferation compared to control; also recorded: induced more proliferation of β-cells compared to only BSA coated control”. The “insulin secretion at 20 mM glucose compared with 5 mM glucose” value in experiment [6] was “responded with more insulin secretion compared to FOL-005 stimulated cells incubated with 5 mM glucose”. Besides, the insulin release entry in experiment [6] (5 mM or 20 mM glucose) is “responded with insulin secretion; also recorded: stimulated insulin release”; in experiment [6] (non glucose containing media, 60 min, vs unstimulated control and FOL-015), “secreted more insulin compared to unstimulated control cells or to cells stimulated with the FOL-015 control peptide; also recorded: increased”. The insulin secretion entry in experiment [3] (Example 5, 6 μM, vs unstimulated control islets) is “secreted more insulin compared to unstimulated control islets”.
